Patent publication US4556660A, “N-(Bicyclic heterocyclyl)-4-piperidinamines” (Janssen Pharmaceutica N.V., priority 1983, dated 1985)

Experiments:
[1] = system: serotonin; compound 48/80-induced gastric lesions; test: Antagonistic activity on the effects of serotonin in the gastric lesion test (lesions induced by compound 48/80); assay type: in vivo, Male rats of a Wistar inbred strain; settings: Rattus norvegicus, po; read-out: gastric lesion test ED50
Protocol: Antagonistic activity on the effects of serotonin in the gastric lesion test
Male rats of a Wistar inbred strain, weighing 220-250 g, were starved overnight, water being available ad libitum. The test compounds were administered orally as a solution or as a suspension in aqueous medium. A control rat and a "blank" rat received the test compound. One hour later 5-[4-(diphenylmethyl)-1-piperazinylmethyl]-1-methyl-1H-benzimidazole-2-methanol was administered subcutaneously to all rats at the dose of 2.5 mg/kg.
Four hours after the intravenous injection of compound 48/80, the rats were decapitated and the stomachs were removed. Subsequently the stomachs were inspected for distension and contents (blood, fluid, food) and thoroughly rinsed. The macroscopic lesions were scored from 0 to +++, 0 corresponding to complete absence of visible lesions and the highest score corresponding to reddish rough patches covering more than half the glandular area.

[2] = system: compound 48/80-induced lethality; test: Protection of rats from compound 48/80-induced lethality; assay type: in vivo, Male rats of an inbred Wistar strain; settings: Rattus norvegicus, 4 h, read-out: compound 48/80 lethality test rats-ED50
Protocol: Protection of rats from compound 48/80-induced lethality
The protection from compound 48/80-induced lethal circulatory collapse appears to be a simple way of evaluating quantitatively the antihistaminic activity of test compounds. Male rats of an inbred Wistar strain, weighing 240-260 g were used in the experiment. After overnight starvation the rats were transferred to conditioned laboratories (temp.=21±1° C., relative humidity-65±5%).
The rats were treated subcutaneously or orally with a test compound or with the solvent (NaCl solution, 0.9%). […] Survival after 4 hours is therefore considered to be a safe criterion of a protective effect of drug administration.
The ED50 -values of the compounds of formula (I) and the intermediates of formula (XVIII) are listed in the first column of table 1 and table 2. Said ED50 -values are the values in mg/kg body weight at which the tested compounds protect 50% of the tested animals against compound 48/80-induced lethality.

[3] = system: compound 48/80-induced cyanosis, lesions in the glandular area of the stomach and abnormal gastric distension; settings: rats injected with compound 48/80; cited from earlier work

SMILES | ED50 [1] | ED50 [2] | prevention of cyanosis of ears and extremities, lesions in the glandular area of the stomach and abnormal gastric distension [3]
Cc1cc(=O)[nH]c(NCCN2CCC(Nc3nc4ccccc4n3Cc3ccc(F)cc3)CC2)n1 [Compound 90] | 0.63 mg/kg | 0.16 mg/kg | –
Fc1ccc(Cn2c(NC3CCN(CCSc4ncccn4)CC3)nc3ccccc32)cc1 [Compound 91, 1-[(4-fluorophenyl)methyl]-N-[1-[2-(2-pyrimidinylthio)ethyl]-4-piperidinyl]-1H-benzimidazol-2-amine] | 0.16 mg/kg | 0.16 mg/kg | –
O.O=c1nc(SCCN2CCC(Nc3nc4ccccc4n3Cc3ccc(F)cc3)CC2)[nH]c2ccccc12 [Compound 92, 2-[2-[4-[[1-[(4-fluorophenyl)methyl]-1H-benzimidazol-2-yl]amino]-1-piperidinyl]ethylthio]-4(1H)-quinazolinone monohydrate] | 2.5 mg/kg | 0.31 mg/kg | –
Cl.Cl.Cl.Nc1cccnc1NCCN1CCC(Nc2nc3ccccc3n2Cc2ccc(F)cc2)CC1 [Compound 93, N^2-[2-[4-[[1-[(4-fluorophenyl)methyl] -1H-benzimidazol-2-yl]amino]-1-piperidinyl]ethyl]-2,3-pyridinediamine trihydrochloride] | 0.31 mg/kg | 0.08 mg/kg | –
Fc1ccc(Cn2c(NC3CCN(CCNc4ccncn4)CC3)nc3ccccc32)cc1 [Compound 94, 1-[(4-fluorophenyl)methyl]-N-[1-[2-(4-pyrimidinylamino)ethyl]-4-piperidinyl]-1H-benzimidazol-2-amine hemihydrate] | 1.25 mg/kg | 0.08 mg/kg | –
Nc1cncnc1NCCN1CCC(Nc2nc3ccccc3n2Cc2ccc(F)cc2)CC1 [Compound 96, N^4-[2-[4-[[1-[(4-fluorophenyl)methyl]-1H-benzimidazol-2-yl]amino]-1-piperidinyl]ethyl]-4,5-pyrimidinediamine] | 0.02 mg/kg | 0.08 mg/kg | –
Fc1ccc(Cn2c(NC3CCN(C4CCN(c5ccccn5)CC4)CC3)nc3ccccc32)cc1 [Compound 97, N-[1-[(4-fluorophenyl)methyl]-1H-benzimidazol-2-yl]-1'-(2-pyridinyl)-[1,4'-bipiperidin]-4-amine (E)-2-butenedioate (2:3) monohydrate] | 2.5 mg/kg | 0.63 mg/kg | –
CC(=O)N(CCN1CCC(Nc2nc3ccccc3n2Cc2ccc(F)cc2)CC1)c1ncccn1.O=C(O)/C=C/C(=O)O.O=C(O)/C=C/C(=O)O [Compound 99, N-[2-[4-[[1-[(4-fluorophenyl)methyl]-1H-benzimidazol-2-yl]amino]-1-piperidinyl]ethyl]-N-(2-pyrimidinyl)acetamide (E)-2-butenedioate (1:2)] | 0.63 mg/kg | 0.04 mg/kg | –
O=C(c1ccccc1)N(CCN1CCC(Nc2nc3ccccc3n2Cc2ccc(F)cc2)CC1)c1ncccn1 [Compound 100, N-[2-[4-[[1-fluorophenyl)methyl]-1H-benzimidazol-2-yl]amino]-1-piperidinyl]ethyl]-N-(2-pyrimidinyl)benzamide (E)-2-butenedioate (1:2)] | 0.63 mg/kg | 0.08 mg/kg | –
Fc1ccc(Cn2c(NC3CCN(CCNC(=S)Nc4cccnc4)CC3)nc3ccccc32)cc1 [Compound 104, N-[2-[4-[[1-[(4-fluorophenyl)methyl]-1H-benzimidazol-2-yl]amino]-1-piperidinyl]ethyl]-N'-(3-pyridinyl)thiourea] | 0.63 mg/kg | 0.63 mg/kg | –
Fc1ccc(Cn2c(NC3CCN(CCNC(=S)Nc4ccccn4)CC3)nc3ccccc32)cc1 [Compound 105, N-[2-[4-[[1-[(4-fluorophenyl)methyl]-1H-benzimidazol-2-yl]amino]-1-piperidinyl]ethyl]-N'-(2-pyridinyl)thiourea] | 0.63 mg/kg | 0.63 mg/kg | –
Nc1cccnc1NC(=S)NCCN1CCC(Nc2nc3ccccc3n2Cc2ccc(F)cc2)CC1 [Compound 107, N-(3-amino-2-pyridinyl)-N'-[2-[4-[[1-[(4-fluorophenyl)methyl]-1H-benzimidazol-2-yl]amino]-1-piperidinyl]ethyl]thiourea] | 0.31 mg/kg | 0.16 mg/kg | –
O=C(O)/C=C/C(=O)O.O=C(O)/C=C/C(=O)O.O=C(OCCN1CCC(Nc2nc3ccccc3n2Cc2ccc(F)cc2)CC1)c1ccc2ccccc2n1 [Compound 112, [2-[4-[[1-[(4-fluorophenyl)methyl]-1H-benzimidazol-2-yl]amino]-1-piperidinyl]ethyl]-2-quinolinecarboxylate (E)-2-butenedioate (1:2)] | 0.63 mg/kg | 0.04 mg/kg | –
Nc1nccnc1C(=O)NCCN1CCC(Nc2nc3ccccc3n2Cc2ccc(F)cc2)CC1 [Compound 113, 3-amino-N-[2-[4-[[1-[(4-fluorophenyl)methyl]-1H-benzimidazol-2-yl]amino]-1-piperidinyl]ethyl]-2-pyrazinecarboxamide] | 0.16 mg/kg | 0.04 mg/kg | –
O=C(NCCN1CCC(Nc2nc3ccccc3n2Cc2ccc(F)cc2)CC1)c1ccc(Cl)nc1.O=C(O)/C=C/C(=O)O.O=C(O)/C=C/C(=O)O [Compound 116, 6-chloro-N-[2-[4-[[1-[(4-fluorophenyl)methyl]-1H-benzimidazol-2-yl]amino]-1-piperidinyl]ethyl]-3-pyridinecarboxamide (E)-2-butenedioate (1:2)] | 2.5 mg/kg | 0.31 mg/kg | –
N#CCN1CCC(Nc2nc3ncccc3n2Cc2ccc(F)cc2)CC1 [Intermediate 79] | 0.63 mg/kg | 0.16 mg/kg | –
CN(C)CCCSc1ccccc1NC(=O)/C=C/c1ccccc1 [cinanserin] | – | – | prevent completely
CN1CCC(=C2c3ccccc3C=Cc3ccccc32)CC1 [cyproheptadine] | – | – | prevent completely
CN1C[C@H](CNC(=O)OCc2ccccc2)C[C@@H]2c3cccc4c3c(cn4C)C[C@H]21 [metergoline] | – | – | prevent completely
CC[C@@H](CO)NC(=O)[C@@H]1C=C2c3cccc4c3c(cn4C)C[C@H]2N(C)C1 [methysergide] | – | – | prevent completely
CN1CCN2c3ccccc3Cc3ccccc3C2C1 (stereo not shown) [mianserin] | – | – | prevent completely
NC(=O)C1(N2CCCCC2)CCN(CCCC(=O)c2ccc(F)cc2)CC1 [pipamperone] | – | – | prevent completely
CN1CCC(=C2c3ccccc3CCc3sccc32)CC1 [pizotifen] | – | – | prevent completely
O=C(CCCN1CCC2(CC1)C(=O)NCN2c1ccccc1)c1ccc(F)cc1 [spiperone] | – | – | prevent completely
